Test results as given in publication PMC3612465 (International Journal of Alzheimer's Disease, 2013).
Where two headings read alike, the source gives them in different places.

Assays:
[1] = system: Aβ; Notch-related toxicity; set-up: method as in PMID 21190552; settings: 7 days of b.i.d. dosing, cited from earlier work
Aβ40, Aβ42 [2] = system: Aβ40, Aβ42; set-up: species or system TgCRND8 mouse; settings: mouse, in vivo, po, 100 mg/kg
Aβ40 [3] = test: Acute Aβ lowering in nontransgenic B6C3F1 mice; format: in vivo, nontransgenic B6C3F1 mouse; settings: 3 hr
Aβ40, Aβ42 [4] = settings: TgCRND8, single oral 30 mg/kg, 8 hr after dose
From the text: (§1) Plasma and cortex Aβ42 were quantified in select TgCRND8 studies using biotin-4G8 and S-tag G2-11 and 4G8 antibodies.

Aβ40, Aβ42 [5] = system: Aβ40, Aβ42; set-up: species or system TgCRND8 mouse; settings: mouse, in vivo
From the text: as §1

Aβ40 [6] = test: Subchronic (11 days q.d. or 6 days b.i.d.) Aβ lowering in nontransgenic mice; format: in vivo, nontransgenic B6C3F1 mouse
[7] = system: HES-1, mATH1, KLF4 gene expression; test: Notch pathway biomarker gene expression in jejunum (RT-PCR); format: in vivo, nontransgenic B6C3F1 mouse; settings: nontransgenic mice
From the text: The jejunum was harvested, rinsed, and flash frozen in liquid nitrogen until later analyses. RNA was isolated from tissues using the Trizol reagent (Molecular Research Center, Inc.) followed by purification over an RNAeasy column (Qiagen).
RNA was purified over an RNAeasy column.

Aβ40 [8] = settings: rat, single oral dose 10-100 mg/kg, 3 hr

Row | Structure (SMILES) | lowering of Aβ ([1]; sustained but incomplete) | Notch-related toxicity (thymus weight, goblet cell hyperplasia in the ileum) [1] | cortex Aβ40 reduction (Aβ40, Aβ42 [2]) | cortex Aβ42 reduction (Aβ40, Aβ42 [2]) | cortex Aβ lowering (Aβ40 [3]; single oral 100 mg/kg) | cortex Aβ lowering (Aβ40 [3]; single oral 10, 30 and 100 mg/kg, P < 0.005) | cortex Aβ40 lowering (Aβ40, Aβ42 [4]) | cortex Aβ42 lowering (Aβ40, Aβ42 [4]) | cortex Aβ40 reduction (Aβ40, Aβ42 [5]) | cortex Aβ42 reduction (Aβ40, Aβ42 [5]) | cortex Aβ reduction (Aβ40, Aβ42 [5]) | reduction of Aβ at partial inhibition dose (Aβ40, Aβ42 [5]) | dose giving 50% lowering of cortical Aβ (Aβ40 [6]; nontransgenic mice, 11 days q.d. and 6 days b.i.d.) | increase in Aβ in the cortex (Aβ40 [6]; nontransgenic mice, 11 days q.d. and 6 days b.i.d., 3-100 mg/kg) | continuous inhibition of Aβ with q.d. dosing (Aβ40 [6]; q.d. dosing (100 mg/kg), without Notch-related side effects) | mATH1 expression in the jejunum ([7]; 100 mg/kg 6 days b.i.d., P < 0.04) | HES-1 expression in the jejunum ([7]; 100 mg/kg, 11 days q.d. and 6 days b.i.d., P < 0.02) | KLF4 expression in the jejunum ([7]; 30 and 100 mg/kg 6 days b.i.d., P < 0.04) | mATH1 and KLF expression in the jejunum ([7]; 11 day q.d. groups) | cortex Aβ40 reduction (plateau) (Aβ40 [8])
1 | O=S(=O)(c1ccc(Cl)cc1)N1[C@@H]2CCC[C@H]1c1cn[nH]c1C2 [ELN 475516] | ~ 74% | no evidence of Notch-related toxicity | – | – | – | – | – | – | – | – | – | – | – | – | – | – | – | – | – | –
2 | O=C(OC1([C@H]2CCC[C@@H](c3cc(F)cc(F)c3)N2S(=O)(=O)c2ccc(Cl)cc2)CC1)N1CCN(CCO)CC1 (relative stereo) [SCH 697466, 1-[cis-1-[(4-chlorophenyl)sulfonyl]-6-(3,5-difluorophenyl)-2-piperidinyl]cyclopropyl 4-(2-hydroxyethyl)-1-piperazinecarboxylate] | – | – | 55% | 47% | Near complete lowering | significant lowering | 82% | 42% | 98% | 66% | 48% | ~ 50% | around 30 mg/kg | no evidence of an increase | > 80% | increased expression | significant decreases | increased expression | unchanged | about 60%
